Experimental data reported in patent publication US6946458B2, “N-thiolated beta-lactams: novel antibacterial agents for methicillin-resistant Staphylococcus aureus” (University of South Florida, priority 1999, dated 2005).
Converted amounts (≈) assume the structure as drawn. “Also recorded” adds a separate entry of the source.

Tests used:
MRSA USF652 = experiment: Kirby-Bauer agar disk diffusion; assay type: cell-based, Staphylococcus aureus; conditions: Table 1; 6-mm disks, 20 μg test compound, 24 h, triplicate
In short: (§1)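 Zones of inhibition, in mm and averaged over three runs, are measured after 24 h around 6-mm disks dosed with 20 μg compound on agar lawns of β-lactamase-producing MRSA.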

MRSA USF653 = experiment: Kirby-Bauer agar disk diffusion; assay type: cell-based, Staphylococcus aureus; conditions: Table 1; 6-mm disks, 20 μg test compound, 24 h, triplicate
In short: as §1

MRSA USF654 = experiment: Kirby-Bauer agar disk diffusion; assay type: cell-based, Staphylococcus aureus; conditions: Table 1; 6-mm disks, 20 μg test compound, 24 h, triplicate
In short: as §1

MRSA USF655 = experiment: Kirby-Bauer agar disk diffusion; assay type: cell-based, Staphylococcus aureus; conditions: Table 1; 6-mm disks, 20 μg test compound, 24 h, triplicate
In short: as §1

MRSA USF656 = experiment: Kirby-Bauer agar disk diffusion; assay type: cell-based, Staphylococcus aureus; conditions: Table 1; 6-mm disks, 20 μg test compound, 24 h, triplicate
In short: as §1

MRSA USF657 = experiment: Kirby-Bauer agar disk diffusion; assay type: cell-based, Staphylococcus aureus; conditions: Table 1; 6-mm disks, 20 μg test compound, 24 h, triplicate
In short: as §1

MRSA USF658 = experiment: Kirby-Bauer agar disk diffusion; assay type: cell-based, Staphylococcus aureus; conditions: Table 1; 6-mm disks, 20 μg test compound, 24 h, triplicate
In short: as §1

MRSA USF659 = experiment: Kirby-Bauer agar disk diffusion; assay type: cell-based, Staphylococcus aureus; conditions: Table 1; 6-mm disks, 20 μg test compound, 24 h, triplicate
In short: as §1

Micrococcus luteus = experiment: Kirby-Bauer agar disk diffusion; assay type: cell-based; conditions: Table 1; 6-mm disks, 20 μg test compound, 24 h, triplicate
In short: (§2)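 Agar disk diffusion used 6-mm air-dried disks carrying 20 μg of compound. Values are mean diameters (mm) of the growth-inhibition zone at 24 h, from triplicate experiments. S. epidermidis and S. simulans were clinical isolates.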

[1] = system: Staphylococcus aureus (ATCC 25923); experiment: Kirby-Bauer agar disk diffusion; assay type: cell-based; conditions: Table 1; 6-mm disks, 20 μg test compound, 24 h, triplicate
In short: as §2

[2] = system: Staphylococcus epidermidis; experiment: Kirby-Bauer agar disk diffusion; assay type: cell-based; conditions: Table 1; 6-mm disks, 20 μg test compound, 24 h, triplicate
In short: as §2

S. simulans (ATCC 11631) = experiment: Kirby-Bauer agar disk diffusion; assay type: cell-based, Staphylococcus simulans; conditions: Table 1; 6-mm disks, 20 μg test compound, 24 h, triplicate
In short: as §2

[3] = system: S. saprophyticus (ATCC 3552); experiment: Kirby-Bauer agar disk diffusion; assay type: cell-based, Staphylococcus saprophyticus; conditions: Table 1; 6-mm disks, 20 μg test compound, 24 h, triplicate
In short: as §2

N. gonorrhoeae = experiment: Kirby-Bauer agar disk diffusion; assay type: cell-based, Neisseria gonorrhoeae; conditions: Table 1; 6-mm disks, 20 μg test compound, 24 h, triplicate; β-lactamase positive
Protocol: In this study, a selection of N-methylthio-substituted β-lactams are examined for antimicrobial activity by the Kirby-Bauer disk diffusion method on agar plates. A variety of common Gram-positive and Gram-negative bacteria are tested, including clinical isolates of methicillin-resistant Staphylococcus aureus (MRSA).
Compound susceptibility measurements are obtained from agar disk diffusion experiments using 6-mm air-dried disks impregnated with 20 μg of the test compound. The values correspond to the average diameters in mm (triplicate experiments) for the zone of growth inhibition observed after 24 h. Staphylococcus aureus (ATCC 25923) and β-lactamase-producing strains of methicillin-resistant Staphylococcus aureus (labeled as MRSA USF652-659) are obtained from Lakeland Regional Medical Center, Lakeland, Fla. Staphylococcus epidermidis, Staphylococcus simulans, Staphylococcus simulans, and Microcossus luteus are clinical isolates from University of South Florida Medical Clinic. Nieserria gonnorhoeae (β-lactamase positive) is obtained from the Tampa Branch State Laboratory. PenG is penicillin G (potassium salt). Table 1 provides the zones of growth inhibition that are observed after 24 hours using the lactams of FIGS. 1A-1I (designated A-I, respectively).

Staphylococcus aureus = experiment: MIC by agar dilution; assay type: cell-based
Text: (§3) However, the N-alkylthio substituent is required, since reduction to the N—H analogue completely destroys the biological activity.

MRSA strains = experiment: MIC by agar dilution; assay type: cell-based, Staphylococcus aureus
Text: as §3

[4] = system: cultures of S. aureus and MRSA; experiment: electron microscopy of cell morphology; assay type: cell-based, Staphylococcus aureus; conditions: Example 1; electron microscopy, high magnification; listed as FIG. 1D
Text: The structure-bioactivity patterns observed for these N-thiolated lactams are highly atypical for a β-lactam antibiotic. The compounds are lipohilic and devoid of the typical acidic ring functionality required for recognition by the penicillin binding proteins. The implication that the lactams set forth in FIGS. 1A-1I are not acting in the same manner or on the same enzymes as the traditional β-lactam drugs is supported by electron microscopy experiments, which confirm that cell morphology is unaffected by the lactam of FIG. 1D (Greenwood, D. et al. Science, 1969, 163:1076).
(§4) In fact, only small isolated colonies of surviving cells can be found, all of which appear perfectly normal in size, shape, smoothness, and clustering behavior. […] Pulse radiolabeling experiments indicate that the lactam of FIG. 1D blocks the bacterial uptake of ^3H-uridine and ^3H-leucine at low (MIC) levels (Lim, D. V. et al. Microbiology, 1977, 33:328; Champney, W. S. and C. G. Tober Antimicrob. Agents and Chemother., 2000, 44:1413).
Light microscopy and scanning electron microscopy experiments have enabled us to look for cell wall damage in cultures of S. aureus and MRSA grown in the presence of N-methylthio lactam (FIG. 11F) over a range of different concentrations and cell growth conditions. […] Those cells that survive the treatment appear normal (coccal) and fully mature.

MRSA cells = experiment: light microscopy after Gram staining; assay type: cell-based, Staphylococcus aureus; conditions: Example 1
Text: as §4
(FIGS. 14A-14C) S. aureus is a Gram-positive microorganism, and thus reacts with Gram stain to produce a purple coloration due to binding of the stain to the peptidoglycan. 100% of MRSA cells grown either in the absence or presence of the lactam of FIG. 11F take on a purple color when Gram stained (top and center images, next page). In contrast, for MRSA cells treated with penicillin G or vancomycin (cell wall synthesis inhibitors), only about 30% of the cells are Gram-stained purple, with the remainder of the cells appearing pink (bottom image, next page) due to morphologically altered walls. This is strong evidence that the N-methylthio lactams are not affecting late stage events in cell wall biosynthesis.

[5] = system: bacterial uptake of ^3H-uridine and ^3H-leucine; experiment: pulse radiolabeling experiments; assay type: cell-based; conditions: at low (MIC) levels
Text: as §4

Compound: COC1C(=O)N(SC)C1c1ccccc1Cl (racemic) [Lactam D]
- zone of growth inhibition, average diameter (MRSA USF652): 30 mm
- zone of growth inhibition, average diameter (MRSA USF653): 30 mm
- zone of growth inhibition, average diameter (MRSA USF654): 26 mm
- zone of growth inhibition, average diameter (MRSA USF655): 26 mm
- zone of growth inhibition, average diameter (MRSA USF656): 28 mm
- zone of growth inhibition, average diameter (MRSA USF657): 28 mm
- zone of growth inhibition, average diameter (MRSA USF658): 27 mm
- zone of growth inhibition, average diameter (MRSA USF659): 24 mm
- zone of growth inhibition, average diameter (Micrococcus luteus): 24 mm
- zone of growth inhibition, average diameter [1]: 26 mm
- zone of growth inhibition, average diameter [2]: 29 mm
- zone of growth inhibition, average diameter (S. simulans (ATCC 11631)): 16 mm
- zone of growth inhibition, average diameter [3]: 20 mm
- zone of growth inhibition, average diameter (N. gonorrhoeae): 19 mm
- Minimum inhibitory concentration (MIC) (Staphylococcus aureus): 15 µg/mL (≈ 58.2 µM)
- Minimum inhibitory concentration (MIC) (MRSA strains): 5 to 10 µg/mL
- cell morphology [4]: unaffected; also recorded: no visible damage or morphological deformities
- coloration upon Gram staining (MRSA cells): uniform purple coloration
- bacterial uptake of ^3H-leucine [5]: blocks
- bacterial uptake of ^3H-uridine [5]: blocks
